Where two headings read alike, the source gives them in different places.
How the values were obtained:
[1] = system: tobacco mosaic virus (TMV); assay: Anti-TMV in vitro effect (half-leaf soaking); assay type: cell-based, tobacco mosaic virus (host Nicotiana tabacum L.cv.Xanthi NN)
[2] = system: tobacco mosaic virus (TMV); assay: Anti-TMV in vivo inactivation; set-up: species or system tobacco mosaic virus (host Nicotiana tabacum L.cv.Xanthi NN)
[3] = system: tobacco mosaic virus (TMV); assay: Anti-TMV in vivo therapeutic effect; set-up: species or system tobacco mosaic virus (host Nicotiana tabacum L.cv.Xanthi NN)
[4] = system: tobacco mosaic virus (TMV); assay: Anti-TMV in vivo protective effect; set-up: species or system tobacco mosaic virus (host Nicotiana tabacum L.cv.Xanthi NN)
[5] = system: cucumber fusarium wilt; assay: Fungicidal (bactericidal) activity in vitro, PDA colony diameter; assay type: cell-based; settings: 50 mg/kg
[6] = system: Cercospora arachidicola; assay: as above; assay type: cell-based; settings: 50 mg/kg
[7] = system: Macrophoma kawatsukai; assay: as above; assay type: cell-based; settings: 50 mg/kg
[8] = system: Alternaria solani; assay: as above; assay type: cell-based; settings: 50 mg/kg
[9] = system: Fusarium graminearumt; assay: microbe, parasite or virus in culture; assay type: cell-based; settings: 50 mg/kg
[10] = system: potato late blight; assay: microbe, parasite or virus in culture; assay type: cell-based
[11] = system: Sclerotinia scleotiorum; assay: Fungicidal (bactericidal) activity in vitro, PDA colony diameter; assay type: cell-based; settings: 50 mg/kg
[12] = system: Botrytis cinerea; assay: as above; assay type: cell-based; settings: 50 mg/kg
[13] = system: Rhizoctonia solani; assay: as above; assay type: cell-based; settings: 50 mg/kg
[14] = system: Phytophthora capsici; assay: as above; assay type: cell-based; settings: 50 mg/kg
[15] = system: Fusarium fujikuroi; assay: as above; assay type: cell-based; settings: 50 mg/kg
[16] = system: Rhizoctonia cereali; assay: as above; assay type: cell-based
[17] = system: Bipolaria maydis; assay: organism not typed; assay type: cell-based; settings: 50 mg/kg
[18] = system: Colletotrichum orbiculare; assay: Fungicidal (bactericidal) activity in vitro, PDA colony diameter; assay type: cell-based; settings: 50 mg/kg
[19] = system: armyworms; assay type: in vivo; settings: concentration 600 mg/kg
[20] = system: cotton bollworms; assay: whole plant or invertebrate; settings: concentration 600 mg/kg
Protocol: Experimental method of cotton bollworms: feed and drug mixing method: measure 3 mL of prepared solution and add it to about 27 g of newly prepared feed, thereby obtaining needed concentration through dilution by 10 times.

[21] = system: mosquito larvae; assay: whole plant or invertebrate; settings: 24 h
Method in brief: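 Early fourth-instar Culex pipiens pallens larvae from an indoor colony, 10 per beaker, exposed to test compound at 5 ppm in water, diluted from a 1000 ppm acetone mother solution. Blank: water containing 0.5 mL test solvent.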

[22] = system: corn borers; settings: concentration 600 mg/kg

Row | Compound | Relative inhibition rate (%) In vitro activity ([1]; treatment dose 100 μg/mL) [%] | Relative inhibition rate (%) In vitro activity ([1]; treatment dose 500 μg/mL) [%] | Relative inhibition rate (%) In vivo inactivation ([2]; treatment dose 100 μg/mL) [%] | Relative inhibition rate (%) In vivo inactivation ([2]; treatment dose 500 μg/mL) [%] | Relative inhibition rate (%) In vivo therapy ([3]; treatment dose 100 μg/mL) [%] | Relative inhibition rate (%) In vivo therapy ([3]; treatment dose 500 μg/mL) [%] | Relative inhibition rate (%) In vivo protection ([4]; treatment dose 100 μg/mL) [%] | Relative inhibition rate (%) In vivo protection ([4]; treatment dose 500 μg/mL) [%] | Bactericidal activity (%) Cucumber fusarium wilt [5] [%] | Bactericidal activity (%) Cercospora arachidicola [6] [%] | Bactericidal activity (%) Macrophoma kawatsukai [7] [%] | Bactericidal activity (%) Alternaria solani [8] [%] | Bactericidal activity (%) Fusarium graminearumt [9] [%] | Bactericidal activity (%) potato late blight [10] [%] | Bactericidal activity (%) Sclerotinia scleotiorum [11] [%] | Bactericidal activity (%) Botrytis cinerea [12] [%] | Bactericidal activity (%) Rhizoctonia solani [13] [%] | Bactericidal activity (%) Phytophthora capsici [14] [%] | Bactericidal activity (%) Fusarium fujikuroi [15] [%] | Bactericidal activity (%) Bipolaria maydis [17] [%] | other results
1 | C[C@@H]1N[C@H](C(=O)NN=Cc2ccc(Cl)cc2Cl)Cc2c1[nH]c1ccccc21 [Ic-6, (1S, 3S)—N′-(2,4-dichlorobenzylidene)-1-methyl-2,3,4,9-tetrahydropyridino [3,4-b] indol-3-formylhydrazine] | 20.1 | 56.8 | 28.5 | 66.7 | 31.5 | 60.4 | 18.6 | 57.2 | 27.3 | 45.5 | 48.5 | 42.9 | 53.8 | 39.1 | 46.2 | 52.8 | 45.8 | 60.6 | 47.1 | 56.0 | Bactericidal activity (%) Rhizoctonia cereali [16]: 56.8%; Bactericidal activity (%) Colletotrichum orbiculare [18]: 60.0%; Armyworm Mortality (%) [19]: 45%; Cotton bollworm Mortality (%) [20]: 35%; Mosquito larvae Mortality (%) ([21]; concentration 5 mg/kg): 20%; Mosquito larvae Mortality (%) ([21]; concentration 10 mg/kg): 100%; Corn borer Mortality (%) [22]: 40%
2 | COc1ccc(C=NNC(=O)[C@@H]2Cc3c([nH]c4ccccc34)[C@H](C)N2)cc1 [Ic-8, (1S, 3S)—N′-(4-methoxybenzylidene)-1-methyl-2,3,4,9-tetrahydropyridino [3,4-b] indol-3-formylhydrazine] | 28.7 | 62.5 | 30.4 | 69.1 | 34.8 | 66.4 | 31.8 | 70 | 23.1 | 64.7 | 72.2 | 30.0 | 65.5 | 52.0 | 94.1 | 59.1 | 59.2 | 73.7 | 64.3 | 68.0 | Bactericidal activity (%) Rhizoctonia cereali ([16]; 50 mg/kg): 84.3%; Bactericidal activity (%) Colletotrichum orbiculare [18]: 55.6%; Armyworm Mortality (%) [19]: 20%; Cotton bollworm Mortality (%) [20]: 35%; Mosquito larvae Mortality (%) ([21]; concentration 10 mg/kg): 35%; Corn borer Mortality (%) [22]: 15%
3 | COc1cccc(C=NNC(=O)[C@@H]2Cc3c([nH]c4ccccc34)[C@H](C)N2)c1 [Ic-9, (1S, 3S)—N′-(3-methoxybenzylidene)-1-methyl-2,3,4,9-tetrahydropyridino [3,4-b] indol-3-formylhydrazine] | 13.2 | 53.2 | 22.1 | 59.2 | 16.5 | 54 | 20.6 | 54.7 | 34.6 | 58.8 | 69.4 | 65.0 | 41.4 | 40.0 | 88.2 | 68.2 | 68.4 | 81.6 | 57.1 | 48.0 | Bactericidal activity (%) Rhizoctonia cereali ([16]; 50 mg/kg): 92.2%; Bactericidal activity (%) Colletotrichum orbiculare [18]: 40.7%; Armyworm Mortality (%) [19]: 35%; Cotton bollworm Mortality (%) [20]: 30%; Mosquito larvae Mortality (%) ([21]; concentration 10 mg/kg): 75%; Corn borer Mortality (%) [22]: 40%
4 | COc1ccccc1C=NNC(=O)[C@@H]1Cc2c([nH]c3ccccc23)[C@H](C)N1 [Ic-10, (1S, 3S)—N′-(2-methoxybenzylidene)-1-methyl-2,3,4,9-tetrahydropyridino [3,4-b] indol-3-formylhydrazine] | 0 | 38.5 | 0 | 43.2 | 10.9 | 36.4 | 0 | 34.8 | 26.9 | 23.5 | 88.9 | 45.0 | 72.4 | 44.0 | 64.7 | 77.3 | 32.9 | 63.2 | 21.4 | 56.0 | Bactericidal activity (%) Rhizoctonia cereali ([16]; 50 mg/kg): 78.4%; Bactericidal activity (%) Colletotrichum orbiculare [18]: 40.7%; Armyworm Mortality (%) [19]: 25%; Cotton bollworm Mortality (%) [20]: 30%; Mosquito larvae Mortality (%) ([21]; concentration 10 mg/kg): 50%; Corn borer Mortality (%) [22]: 30%
